Patent US20260274856A1, “COVALENT CEREBLON LIGANDS” (C4 THERAPEUTICS, INC., priority 2023, published 2026)

target: mutant BRAF V600E (Homo sapiens, UniProt P15056, V600E); experiment: BRAF V600E HiBiT Degradation Assay in A375.10 cells; conditions: 24 hours, A375.10 cells; inflection point of the dose-response curve
Sequence (P15056 whole entry V600E): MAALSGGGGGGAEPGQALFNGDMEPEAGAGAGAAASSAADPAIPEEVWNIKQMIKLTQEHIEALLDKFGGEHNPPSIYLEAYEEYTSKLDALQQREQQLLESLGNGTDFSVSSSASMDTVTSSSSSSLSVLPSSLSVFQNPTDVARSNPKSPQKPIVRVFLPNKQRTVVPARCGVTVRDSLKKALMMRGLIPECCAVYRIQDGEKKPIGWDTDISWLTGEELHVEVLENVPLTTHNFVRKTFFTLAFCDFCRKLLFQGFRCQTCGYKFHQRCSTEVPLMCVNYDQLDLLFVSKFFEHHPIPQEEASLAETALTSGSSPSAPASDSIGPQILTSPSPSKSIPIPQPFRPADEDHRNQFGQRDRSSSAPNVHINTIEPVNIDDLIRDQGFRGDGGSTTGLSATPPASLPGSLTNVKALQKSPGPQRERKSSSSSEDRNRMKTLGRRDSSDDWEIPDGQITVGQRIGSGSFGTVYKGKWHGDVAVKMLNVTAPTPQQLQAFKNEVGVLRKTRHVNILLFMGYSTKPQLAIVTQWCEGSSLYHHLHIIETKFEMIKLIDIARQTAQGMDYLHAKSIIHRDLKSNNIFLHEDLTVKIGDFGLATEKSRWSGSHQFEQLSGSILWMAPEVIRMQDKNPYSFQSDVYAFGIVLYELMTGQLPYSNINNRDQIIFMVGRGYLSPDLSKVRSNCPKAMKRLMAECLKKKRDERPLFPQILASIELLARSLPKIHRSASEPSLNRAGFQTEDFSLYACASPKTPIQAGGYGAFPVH

| Structure (SMILES) | HiBIT-Degradation A375.10 BRAF 24 hours IP nM |
| --- | --- |
| CCN(C)S(=O)(=O)Nc1ccc(F)c(Oc2ccc3ncn([C@H]4COC5(CCN(C(=O)CN6CCC(c7ccc(C8CCC(=O)NC8=O)cc7OS(=O)(=O)F)CC6)CC5)C4)c(=O)c3c2)c1C#N (some centres unmarked) [drawing 1216] | *** (<= 1 μM is ***) |
| CCN(C)S(=O)(=O)Nc1ccc(F)c(Oc2ccc3ncn([C@H]4COC5(CCN(C(=O)CN6CCC(c7ccc(NC8CCC(=O)NC8=O)cc7OS(C)(=O)=O)CC6)CC5)C4)c(=O)c3c2)c1C#N (some centres unmarked) [drawing 1217] | *** (<= 1 μM is ***) |
| CCN(C)S(=O)(=O)Nc1ccc(F)c(Oc2ccc3ncn([C@H]4COC5(CCN(C(=O)CN6CCC(c7ccc(N8CCC(=O)NC8=O)cc7OS(=O)(=O)F)CC6)CC5)C4)c(=O)c3c2)c1C#N [drawing 1218] | *** (<= 1 μM is ***) |
| CCN(C)S(=O)(=O)Nc1ccc(F)c(Oc2ccc3ncn([C@@H]4COC5(CCN(C(=O)CN6CCC(c7ccc(N8CCC(=O)NC8=O)cc7OS(C)(=O)=O)CC6)CC5)C4)c(=O)c3c2)c1C#N [drawing 1219] | *** (<= 1 μM is ***) |
| CCN(C)S(=O)(=O)Nc1ccc(F)c(Oc2ccc3ncn([C@H]4COC5(CCN(C(=O)CN6CCC(c7ccc(N8CCC(=O)NC8=O)cc7OS(C)(=O)=O)CC6)CC5)C4)c(=O)c3c2)c1C#N [drawing 1220] | *** (<= 1 μM is ***) |
| CCN(C)S(=O)(=O)Nc1ccc(F)c(Oc2ccc3ncn([C@@H]4COC5(CCN(C(=O)CN6CCC(c7ccc(OC8CCC(=O)NC8=O)cc7S(=O)(=O)F)CC6)CC5)C4)c(=O)c3c2)c1C#N (some centres unmarked) [drawing 1221] | *** (<= 1 μM is ***) |
| CCN(C)S(=O)(=O)Nc1ccc(F)c(Oc2ccc3ncn([C@@H]4COC5(CCN(C(=O)CN6CCC(c7ccc(NC8CCC(=O)NC8=O)cc7S(=O)(=O)F)CC6)CC5)C4)c(=O)c3c2)c1C#N (some centres unmarked) [drawing 1222] | *** (<= 1 μM is ***) |
| CCN(C)S(=O)(=O)Nc1ccc(F)c(Oc2ccc3ncn([C@@H]4COC5(CCN(C(=O)CN6CCC(c7ccc(C8CCC(=O)NC8=O)cc7OS(C)(=O)=O)CC6)CC5)C4)c(=O)c3c2)c1C#N (some centres unmarked) [drawing 1223] | *** (<= 1 μM is ***) |
| CCN(C)S(=O)(=O)Nc1ccc(F)c(Oc2ccc3ncn([C@H]4COC5(CCN(C(=O)CN6CCC(c7ccc(OC8CCC(=O)NC8=O)cc7OS(C)(=O)=O)CC6)CC5)C4)c(=O)c3c2)c1C#N (some centres unmarked) [drawing 1224] | *** (<= 1 μM is ***) |
| CCN(C)S(=O)(=O)Nc1ccc(F)c(Oc2ccc3ncn([C@H]4COC5(CCN(C(=O)CN6CCC(c7ccc(OC8CCC(=O)NC8=O)cc7S(=O)(=O)F)CC6)CC5)C4)c(=O)c3c2)c1C#N (some centres unmarked) [drawing 1225] | ** (<10 μM and >1 μM is **) |
| CCN(C)S(=O)(=O)Nc1ccc(F)c(Oc2ccc3ncn([C@@H]4COC5(CCN(C(=O)CN6CCC(c7ccc(NC8CCC(=O)NC8=O)cc7OS(C)(=O)=O)CC6)CC5)C4)c(=O)c3c2)c1C#N (some centres unmarked) [drawing 1226] | ** (<10 μM and >1 μM is **) |
| CCN(C)S(=O)(=O)Nc1ccc(F)c(Oc2ccc3ncn([C@@H]4COC5(CCN(C(=O)CN6CCC(c7ccc(N8CCC(=O)NC8=O)cc7OS(=O)(=O)F)CC6)CC5)C4)c(=O)c3c2)c1C#N [drawing 1227] | ** (<10 μM and >1 μM is **) |
| CCN(C)S(=O)(=O)Nc1ccc(F)c(Oc2ccc3ncn([C@@H]4COC5(CCN(C(=O)CN6CCC(c7ccc(OC8CCC(=O)NC8=O)cc7OS(=O)(=O)F)CC6)CC5)C4)c(=O)c3c2)c1C#N (some centres unmarked) [drawing 1228] | ** (<10 μM and >1 μM is **) |
| CCN(C)S(=O)(=O)Nc1ccc(F)c(Oc2ccc3ncn([C@@H]4COC5(CCN(C(=O)CN6CCN(c7ccc(N8CCC(=O)NC8=O)cc7OS(=O)(=O)F)CC6)CC5)C4)c(=O)c3c2)c1C#N [drawing 1229] | ** (<10 μM and >1 μM is **) |
| CCN(C)S(=O)(=O)Nc1ccc(F)c(Oc2ccc3ncn([C@@H]4COC5(CCN(C(=O)CN6CCC(c7ccc(OC8CCC(=O)NC8=O)cc7OS(C)(=O)=O)CC6)CC5)C4)c(=O)c3c2)c1C#N (some centres unmarked) [drawing 1230] | ** (<10 μM and >1 μM is **) |

same assay, conditions: read-out: HiBIT-Degradation A375.10 BRAF 24 hours DC50 nM; 24 hours, A375.10 cells

| Structure (SMILES) | DC50 [nM] |
| --- | --- |
| CCN(C)S(=O)(=O)Nc1ccc(F)c(Oc2ccc3ncn([C@H]4COC5(CCN(C(=O)CN6CCC(c7ccc(C8CCC(=O)NC8=O)cc7OS(=O)(=O)F)CC6)CC5)C4)c(=O)c3c2)c1C#N (some centres unmarked) [drawing 1216] | < 1000 |
| CCN(C)S(=O)(=O)Nc1ccc(F)c(Oc2ccc3ncn([C@H]4COC5(CCN(C(=O)CN6CCC(c7ccc(NC8CCC(=O)NC8=O)cc7OS(C)(=O)=O)CC6)CC5)C4)c(=O)c3c2)c1C#N (some centres unmarked) [drawing 1217] | < 1000 |
| CCN(C)S(=O)(=O)Nc1ccc(F)c(Oc2ccc3ncn([C@H]4COC5(CCN(C(=O)CN6CCC(c7ccc(N8CCC(=O)NC8=O)cc7OS(=O)(=O)F)CC6)CC5)C4)c(=O)c3c2)c1C#N [drawing 1218] | > 10000 |
| CCN(C)S(=O)(=O)Nc1ccc(F)c(Oc2ccc3ncn([C@@H]4COC5(CCN(C(=O)CN6CCC(c7ccc(N8CCC(=O)NC8=O)cc7OS(C)(=O)=O)CC6)CC5)C4)c(=O)c3c2)c1C#N [drawing 1219] | < 1000 |
| CCN(C)S(=O)(=O)Nc1ccc(F)c(Oc2ccc3ncn([C@H]4COC5(CCN(C(=O)CN6CCC(c7ccc(N8CCC(=O)NC8=O)cc7OS(C)(=O)=O)CC6)CC5)C4)c(=O)c3c2)c1C#N [drawing 1220] | < 1000 |
| CCN(C)S(=O)(=O)Nc1ccc(F)c(Oc2ccc3ncn([C@@H]4COC5(CCN(C(=O)CN6CCC(c7ccc(OC8CCC(=O)NC8=O)cc7S(=O)(=O)F)CC6)CC5)C4)c(=O)c3c2)c1C#N (some centres unmarked) [drawing 1221] | < 1000 |
| CCN(C)S(=O)(=O)Nc1ccc(F)c(Oc2ccc3ncn([C@@H]4COC5(CCN(C(=O)CN6CCC(c7ccc(NC8CCC(=O)NC8=O)cc7S(=O)(=O)F)CC6)CC5)C4)c(=O)c3c2)c1C#N (some centres unmarked) [drawing 1222] | 1000 to 10000 |
| CCN(C)S(=O)(=O)Nc1ccc(F)c(Oc2ccc3ncn([C@@H]4COC5(CCN(C(=O)CN6CCC(c7ccc(C8CCC(=O)NC8=O)cc7OS(C)(=O)=O)CC6)CC5)C4)c(=O)c3c2)c1C#N (some centres unmarked) [drawing 1223] | < 1000 |
| CCN(C)S(=O)(=O)Nc1ccc(F)c(Oc2ccc3ncn([C@H]4COC5(CCN(C(=O)CN6CCC(c7ccc(OC8CCC(=O)NC8=O)cc7OS(C)(=O)=O)CC6)CC5)C4)c(=O)c3c2)c1C#N (some centres unmarked) [drawing 1224] | 1000 to 10000 |
| CCN(C)S(=O)(=O)Nc1ccc(F)c(Oc2ccc3ncn([C@H]4COC5(CCN(C(=O)CN6CCC(c7ccc(OC8CCC(=O)NC8=O)cc7S(=O)(=O)F)CC6)CC5)C4)c(=O)c3c2)c1C#N (some centres unmarked) [drawing 1225] | > 10000 |
| CCN(C)S(=O)(=O)Nc1ccc(F)c(Oc2ccc3ncn([C@@H]4COC5(CCN(C(=O)CN6CCC(c7ccc(NC8CCC(=O)NC8=O)cc7OS(C)(=O)=O)CC6)CC5)C4)c(=O)c3c2)c1C#N (some centres unmarked) [drawing 1226] | 1000 to 10000 |
| CCN(C)S(=O)(=O)Nc1ccc(F)c(Oc2ccc3ncn([C@@H]4COC5(CCN(C(=O)CN6CCC(c7ccc(N8CCC(=O)NC8=O)cc7OS(=O)(=O)F)CC6)CC5)C4)c(=O)c3c2)c1C#N [drawing 1227] | 1000 to 10000 |
| CCN(C)S(=O)(=O)Nc1ccc(F)c(Oc2ccc3ncn([C@@H]4COC5(CCN(C(=O)CN6CCC(c7ccc(OC8CCC(=O)NC8=O)cc7OS(=O)(=O)F)CC6)CC5)C4)c(=O)c3c2)c1C#N (some centres unmarked) [drawing 1228] | 1000 to 10000 |
| CCN(C)S(=O)(=O)Nc1ccc(F)c(Oc2ccc3ncn([C@@H]4COC5(CCN(C(=O)CN6CCN(c7ccc(N8CCC(=O)NC8=O)cc7OS(=O)(=O)F)CC6)CC5)C4)c(=O)c3c2)c1C#N [drawing 1229] | 1000 to 10000 |
| CCN(C)S(=O)(=O)Nc1ccc(F)c(Oc2ccc3ncn([C@@H]4COC5(CCN(C(=O)CN6CCC(c7ccc(OC8CCC(=O)NC8=O)cc7OS(C)(=O)=O)CC6)CC5)C4)c(=O)c3c2)c1C#N (some centres unmarked) [drawing 1230] | > 10000 |

same assay, conditions: read-out: HiBIT-Degradation A375.10 BRAF 24 hours Emax

| Structure (SMILES) | Emax [%] |
| --- | --- |
| CCN(C)S(=O)(=O)Nc1ccc(F)c(Oc2ccc3ncn([C@H]4COC5(CCN(C(=O)CN6CCC(c7ccc(NC8CCC(=O)NC8=O)cc7OS(C)(=O)=O)CC6)CC5)C4)c(=O)c3c2)c1C#N (some centres unmarked) [drawing 1217] | < 60 |
| CCN(C)S(=O)(=O)Nc1ccc(F)c(Oc2ccc3ncn([C@H]4COC5(CCN(C(=O)CN6CCC(c7ccc(N8CCC(=O)NC8=O)cc7OS(=O)(=O)F)CC6)CC5)C4)c(=O)c3c2)c1C#N [drawing 1218] | 60 to 95 |
| CCN(C)S(=O)(=O)Nc1ccc(F)c(Oc2ccc3ncn([C@@H]4COC5(CCN(C(=O)CN6CCC(c7ccc(N8CCC(=O)NC8=O)cc7OS(C)(=O)=O)CC6)CC5)C4)c(=O)c3c2)c1C#N [drawing 1219] | < 60 |
| CCN(C)S(=O)(=O)Nc1ccc(F)c(Oc2ccc3ncn([C@H]4COC5(CCN(C(=O)CN6CCC(c7ccc(N8CCC(=O)NC8=O)cc7OS(C)(=O)=O)CC6)CC5)C4)c(=O)c3c2)c1C#N [drawing 1220] | < 60 |
| CCN(C)S(=O)(=O)Nc1ccc(F)c(Oc2ccc3ncn([C@@H]4COC5(CCN(C(=O)CN6CCC(c7ccc(OC8CCC(=O)NC8=O)cc7S(=O)(=O)F)CC6)CC5)C4)c(=O)c3c2)c1C#N (some centres unmarked) [drawing 1221] | < 60 |
| CCN(C)S(=O)(=O)Nc1ccc(F)c(Oc2ccc3ncn([C@@H]4COC5(CCN(C(=O)CN6CCC(c7ccc(NC8CCC(=O)NC8=O)cc7S(=O)(=O)F)CC6)CC5)C4)c(=O)c3c2)c1C#N (some centres unmarked) [drawing 1222] | < 60 |
| CCN(C)S(=O)(=O)Nc1ccc(F)c(Oc2ccc3ncn([C@@H]4COC5(CCN(C(=O)CN6CCC(c7ccc(C8CCC(=O)NC8=O)cc7OS(C)(=O)=O)CC6)CC5)C4)c(=O)c3c2)c1C#N (some centres unmarked) [drawing 1223] | < 60 |
| CCN(C)S(=O)(=O)Nc1ccc(F)c(Oc2ccc3ncn([C@H]4COC5(CCN(C(=O)CN6CCC(c7ccc(OC8CCC(=O)NC8=O)cc7OS(C)(=O)=O)CC6)CC5)C4)c(=O)c3c2)c1C#N (some centres unmarked) [drawing 1224] | < 60 |
| CCN(C)S(=O)(=O)Nc1ccc(F)c(Oc2ccc3ncn([C@H]4COC5(CCN(C(=O)CN6CCC(c7ccc(OC8CCC(=O)NC8=O)cc7S(=O)(=O)F)CC6)CC5)C4)c(=O)c3c2)c1C#N (some centres unmarked) [drawing 1225] | 60 to 95 |
| CCN(C)S(=O)(=O)Nc1ccc(F)c(Oc2ccc3ncn([C@@H]4COC5(CCN(C(=O)CN6CCC(c7ccc(NC8CCC(=O)NC8=O)cc7OS(C)(=O)=O)CC6)CC5)C4)c(=O)c3c2)c1C#N (some centres unmarked) [drawing 1226] | < 60 |
| CCN(C)S(=O)(=O)Nc1ccc(F)c(Oc2ccc3ncn([C@@H]4COC5(CCN(C(=O)CN6CCC(c7ccc(N8CCC(=O)NC8=O)cc7OS(=O)(=O)F)CC6)CC5)C4)c(=O)c3c2)c1C#N [drawing 1227] | < 60 |
| CCN(C)S(=O)(=O)Nc1ccc(F)c(Oc2ccc3ncn([C@@H]4COC5(CCN(C(=O)CN6CCC(c7ccc(OC8CCC(=O)NC8=O)cc7OS(=O)(=O)F)CC6)CC5)C4)c(=O)c3c2)c1C#N (some centres unmarked) [drawing 1228] | < 60 |
| CCN(C)S(=O)(=O)Nc1ccc(F)c(Oc2ccc3ncn([C@@H]4COC5(CCN(C(=O)CN6CCN(c7ccc(N8CCC(=O)NC8=O)cc7OS(=O)(=O)F)CC6)CC5)C4)c(=O)c3c2)c1C#N [drawing 1229] | < 60 |
| CCN(C)S(=O)(=O)Nc1ccc(F)c(Oc2ccc3ncn([C@@H]4COC5(CCN(C(=O)CN6CCC(c7ccc(OC8CCC(=O)NC8=O)cc7OS(C)(=O)=O)CC6)CC5)C4)c(=O)c3c2)c1C#N (some centres unmarked) [drawing 1230] | < 60 |
